Laboratory results as given in the supplement of paper PMC13380429.

Key:
[1] = test system: A549-ACE2 infected with SARS-CoV-2; assay: morphology score (similarity to uninfected cells); higher = more like uninfected cells; conditions: 24 h
A549-ACE2 [2] = assay: phospholipidosis EC50; higher = less potent phospholipidosis inducer
Vero E6 [3] = assay: cell viability relative to DMSO; higher = less toxic; conditions: 72 h
Caco-2 [4] = assay: as above; conditions: 72 h
Calu-3 [5] = assay: as above; conditions: 72 h
HepG2 [6] = assay: as above; conditions: 72 h
U2OS [7] = assay: as above; conditions: 72 h
[8] = test system: A549-ACE2 infected with SARS-CoV-2; assay: cell count relative to DMSO; higher = less toxic; conditions: 24 h
A549-ACE2 [9] = assay: drug-induced phospholipidosis relative to tamoxifen; higher = more phospholipidosis
Vero E6 [10] = assay: relative viability EC50 (midpoint between 100% and the lowest measured viability); higher = less toxic; conditions: 72 h
Caco-2 [11] = assay: as above; conditions: 72 h
Calu-3 [12] = assay: as above; conditions: 72 h
HepG2 [13] = assay: as above; conditions: 72 h
U2OS [14] = assay: as above; conditions: 72 h
[15] = test system: A549-ACE2 infected with SARS-CoV-2; assay: SARS-CoV-2 infection rate relative to DMSO; higher = more infection; conditions: 24 h
Vero E6 [16] = assay: drug sensitivity score (DSS) for viability; higher = more toxic; extreme values may be limits of the assay; conditions: 72 h
Caco-2 [17] = assay: as above; conditions: 72 h
Calu-3 [18] = assay: as above; conditions: 72 h
HepG2 [19] = assay: as above; conditions: 72 h
U2OS [20] = assay: as above; conditions: 72 h

O=C(NC1CCN(CCCCC2(C(=O)NCC(F)(F)F)c3ccccc3-c3ccccc32)CC1)c1ccccc1-c1ccc(C(F)(F)F)cc1 [lomitapide]
Conditions | SARS-CoV-2 infection rate [%] | cell count [%] | cell viability [%] | morphology score | phospholipidosis EC50 [µM]
A549-ACE2 [2], 24 h | – | – | – | – | 0.898
A549-ACE2 [2], 48 h | – | – | – | – | 1.8
A549-ACE2 [2], 72 h | – | – | – | – | 2.5
Caco-2 [4], 1 nM | – | – | 101 | – | –
Caco-2 [4], 10 nM | – | – | 103 | – | –
Caco-2 [4], 100 nM | – | – | 103 | – | –
Caco-2 [4], 1000 nM | – | – | 103 | – | –
Caco-2 [4], 10000 nM | – | – | 11.8 | – | –
Calu-3 [5], 1 nM | – | – | 101 | – | –
Calu-3 [5], 10 nM | – | – | 100 | – | –
Calu-3 [5], 100 nM | – | – | 98.4 | – | –
Calu-3 [5], 1000 nM | – | – | 109 | – | –
Calu-3 [5], 10000 nM | – | – | 1.2 | – | –
HepG2 [6], 1 nM | – | – | 108 | – | –
HepG2 [6], 10 nM | – | – | 106 | – | –
HepG2 [6], 100 nM | – | – | 106 | – | –
HepG2 [6], 1000 nM | – | – | 100 | – | –
HepG2 [6], 10000 nM | – | – | -0.5 | – | –
U2OS [7], 1 nM | – | – | 101 | – | –
U2OS [7], 10 nM | – | – | 110 | – | –
U2OS [7], 100 nM | – | – | 104 | – | –
U2OS [7], 1000 nM | – | – | 106 | – | –
U2OS [7], 10000 nM | – | – | 1.2 | – | –
Vero E6 [3], 1 nM | – | – | 102 | – | –
Vero E6 [3], 10 nM | – | – | 104 | – | –
Vero E6 [3], 100 nM | – | – | 96 | – | –
Vero E6 [3], 1000 nM | – | – | 97.8 | – | –
Vero E6 [3], 10000 nM | – | – | -0.6 | – | –
[1], 0.1 µM | – | – | – | -0.14 | –
[1], 0.3 µM | – | – | – | 0.12 | –
[1], 1 µM | – | – | – | 0.6 | –
[1], 3 µM | – | – | – | 0.91 | –
[8], 0.1 µM | – | 96 | – | – | –
[8], 0.3 µM | – | 104 | – | – | –
[8], 1 µM | – | 108 | – | – | –
[8], 3 µM | – | 119 | – | – | –
[15], 0.1 µM | 98 | – | – | – | –
[15], 0.3 µM | 93 | – | – | – | –
[15], 1 µM | 72 | – | – | – | –
[15], 3 µM | 12 | – | – | – | –

drug-induced phospholipidosis [%], A549-ACE2 [9]
Conditions | 0.3 µM | 0.833333 µM | 3.33333 µM | 6.66667 µM | 10 µM | 30 µM
24 h | 11.9 | 29.7 | 81 | 81.2 | 40.9 | 49.8
48 h | 15.5 | 36 | 91.1 | 108 | – | –
72 h | 12.7 | 28.5 | 83.5 | 131 | – | –

Conditions | drug sensitivity score | relative viability EC50 [µM]
Caco-2 [11] | – | 3.38
Caco-2 [17] | 4.6 | –
Calu-3 [12] | – | 3.61
Calu-3 [18] | 4.9 | –
HepG2 [13] | – | 3.14
HepG2 [19] | 5.6 | –
U2OS [14] | – | 3.46
U2OS [20] | 5.1 | –
Vero E6 [10] | – | 2.97
Vero E6 [16] | 5.9 | –

CCn1c2ccccc2c2cc(Nc3ccnc(NCCCN4CCOCC4)n3)ccc21 [EHop-016]
Conditions | SARS-CoV-2 infection rate [%] | cell count [%] | cell viability [%] | morphology score | phospholipidosis EC50 [µM]
A549-ACE2 [2], 24 h | – | – | – | – | 0.895
A549-ACE2 [2], 48 h | – | – | – | – | 1.39
A549-ACE2 [2], 72 h | – | – | – | – | 3.13
Caco-2 [4], 1 nM | – | – | 91.4 | – | –
Caco-2 [4], 10 nM | – | – | 93.5 | – | –
Caco-2 [4], 100 nM | – | – | 97.4 | – | –
Caco-2 [4], 1000 nM | – | – | 85.5 | – | –
Caco-2 [4], 10000 nM | – | – | 31.2 | – | –
Calu-3 [5], 1 nM | – | – | 95 | – | –
Calu-3 [5], 10 nM | – | – | 98 | – | –
Calu-3 [5], 100 nM | – | – | 100 | – | –
Calu-3 [5], 1000 nM | – | – | 99 | – | –
Calu-3 [5], 10000 nM | – | – | 6.7 | – | –
HepG2 [6], 1 nM | – | – | 103 | – | –
HepG2 [6], 10 nM | – | – | 104 | – | –
HepG2 [6], 100 nM | – | – | 98.5 | – | –
HepG2 [6], 1000 nM | – | – | 98 | – | –
HepG2 [6], 10000 nM | – | – | 28.1 | – | –
U2OS [7], 1 nM | – | – | 100 | – | –
U2OS [7], 10 nM | – | – | 94.1 | – | –
U2OS [7], 100 nM | – | – | 101 | – | –
U2OS [7], 1000 nM | – | – | 91 | – | –
U2OS [7], 10000 nM | – | – | 34.6 | – | –
Vero E6 [3], 1 nM | – | – | 102 | – | –
Vero E6 [3], 10 nM | – | – | 97.2 | – | –
Vero E6 [3], 100 nM | – | – | 88.9 | – | –
Vero E6 [3], 1000 nM | – | – | 94.3 | – | –
Vero E6 [3], 10000 nM | – | – | 64.3 | – | –
[1], 0.1 µM | – | – | – | -0.12 | –
[1], 0.3 µM | – | – | – | -0.03 | –
[1], 1 µM | – | – | – | 0.46 | –
[1], 3 µM | – | – | – | 0.79 | –
[8], 0.1 µM | – | 93 | – | – | –
[8], 0.3 µM | – | 100 | – | – | –
[8], 1 µM | – | 103 | – | – | –
[8], 3 µM | – | 118 | – | – | –
[15], 0.1 µM | 98 | – | – | – | –
[15], 0.3 µM | 97 | – | – | – | –
[15], 1 µM | 70 | – | – | – | –
[15], 3 µM | 23 | – | – | – | –

drug-induced phospholipidosis [%], A549-ACE2 [9]
Conditions | 0.3 µM | 0.833333 µM | 3.33333 µM | 6.66667 µM | 10 µM | 30 µM
24 h | 3.51 | 16.7 | 47 | 47.4 | 52.6 | 11.5
48 h | 4.02 | 8.22 | 56.9 | 63.9 | 72.1 | 40.9
72 h | 3.76 | 2.65 | 48.2 | 69.6 | 81.3 | –

Conditions | drug sensitivity score | relative viability EC50 [µM]
Caco-2 [11] | – | 1.69
Caco-2 [17] | 6.1 | –
Calu-3 [12] | – | 3.09
Calu-3 [18] | 5.3 | –
HepG2 [13] | – | 2.96
HepG2 [19] | 4.2 | –
U2OS [14] | – | 2.06
U2OS [20] | 5.1 | –
Vero E6 [16] | 2.6 | –
